Molecular target: T1, human TLR8 (Homo sapiens, UniProt Q9NR97)
T1 sequence (Q9NR97 27-1041): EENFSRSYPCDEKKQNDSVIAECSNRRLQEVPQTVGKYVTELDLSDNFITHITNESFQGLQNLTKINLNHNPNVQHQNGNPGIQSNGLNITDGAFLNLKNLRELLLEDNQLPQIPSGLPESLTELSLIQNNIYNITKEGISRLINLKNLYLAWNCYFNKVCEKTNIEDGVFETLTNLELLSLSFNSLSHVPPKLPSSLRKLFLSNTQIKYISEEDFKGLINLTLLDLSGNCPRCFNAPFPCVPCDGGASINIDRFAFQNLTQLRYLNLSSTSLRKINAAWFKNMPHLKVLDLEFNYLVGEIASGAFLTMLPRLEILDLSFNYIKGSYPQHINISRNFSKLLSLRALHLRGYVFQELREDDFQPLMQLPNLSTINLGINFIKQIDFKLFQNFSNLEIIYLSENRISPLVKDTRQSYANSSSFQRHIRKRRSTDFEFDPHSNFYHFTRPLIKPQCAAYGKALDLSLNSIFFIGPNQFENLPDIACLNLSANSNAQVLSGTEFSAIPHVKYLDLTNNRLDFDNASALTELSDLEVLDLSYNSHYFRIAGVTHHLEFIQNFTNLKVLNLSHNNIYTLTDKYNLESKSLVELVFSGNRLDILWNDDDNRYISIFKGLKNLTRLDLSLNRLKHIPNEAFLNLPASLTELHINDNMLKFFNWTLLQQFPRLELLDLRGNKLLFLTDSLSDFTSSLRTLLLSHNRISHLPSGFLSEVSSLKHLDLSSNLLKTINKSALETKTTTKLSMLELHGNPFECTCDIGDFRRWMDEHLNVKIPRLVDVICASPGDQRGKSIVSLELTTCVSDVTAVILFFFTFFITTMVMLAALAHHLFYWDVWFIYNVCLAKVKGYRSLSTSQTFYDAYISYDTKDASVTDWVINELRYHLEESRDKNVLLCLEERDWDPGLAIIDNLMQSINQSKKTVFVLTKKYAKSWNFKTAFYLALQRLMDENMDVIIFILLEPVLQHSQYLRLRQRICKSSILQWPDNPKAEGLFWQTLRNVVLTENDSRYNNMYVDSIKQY
Assay: HEK293-Blue-hTLR-8 cells assay
Format: cell-based
Conditions: HEK293-Blue-hTLR8 cells, R848 stimulation, 20 hrs, SEAP reporter; read-out: HEK/hTLR8 IC50
Excerpt: HEK293-Blue-hTLR-8 Cells Assay:
A stable HEK293-Blue-hTLR-8 cell line was purchased from InvivoGen (Cat. #: hkb-htlr8, San Diego, California, USA). These cells were originally designed for studying the stimulation of human TLR8 by monitoring the activation of NF-κB. A SEAP (secreted embryonic alkaline phosphatase) reporter gene was placed under the control of the IFN-β minimal promoter fused to five NF-κB and AP-1-binding sites. The SEAP was induced by activating NF-κB and AP-1 via stimulating HEK-Blue hTLR8 cells with TLR8 ligands. Therefore the reporter expression was declined by TLR8 antagonist under the stimulation of a ligand, such as R848, for incubation of 20 hrs. The cell culture supernatant SEAP reporter activity was determined using QUANTI-Blue™kit (Cat. #: rep-qb1, Invivogen, San Diego, Ca, USA) at a wavelength of 640 nm, a detection medium that turns purple or blue in the presence of alkaline phosphatase.
HEK293-Blue-hTLR8 cells were incubated at a density of 250,000-450,000 cells/mL in a volume of 170 μL in a 96-well plate in Dulbecco's Modified Eagle's medium (DMEM) containing 4.5 g/L glucose, 50 U/mL penicillin, […], […], 2 mM L-glutamine, 10% (v/v) heat-inactivated fetal bovine serum with addition of 20 μL test compound 1n a serial dilution in the presence of final DMSO at 1% and 10 μL of 60 uM R848 in above DMEM, perform incubation under 37° C. in a CO2 incubator for 20 hrs. Then 20 μL of the supernatant from each well was incubated with 180 μL Quanti-blue substrate solution at 37° C. for 2 hrs and the absorbance was read at 620-655 nm using a spectrophotometer. The signaling pathway that TLR8 activation leads to downstream NF-κB activation has been widely accepted, and therefore similar reporter assay was modified for evaluating TLR8 antagonist.

Compound	IC50
C[C@@H]1CN(c2ccc(C#N)c3ncccc23)C[C@@H]2c3ccc(N4C[C@@H](N)[C@](C)(O)C4)cc3CN12 [Example 45, 5-[(4R,10bS)-4-methyl-8-[trans-(3R,4R)-4-amino-3-hydroxy-3-methyl-pyrrolidin-1-yl]-3,4,6,10b-tetrahydro-1H-pyrazino[2,1-a]isoindol-2-yl]quinoline-8-carbonitrile]	< 3.2 nM
C[C@@H]1CN(c2ccc(C#N)c3ncccc23)C[C@@H]2c3ccc(N4C[C@@H](F)[C@@H](N)C4)cc3CN12 [Example 46, 5-[(4R,10bS)-8-[(3S,4R)-3-amino-4-fluoro-pyrrolidin-1-yl]-4-methyl-3,4,6,10b-tetrahydro-1H-pyrazino[2,1-a]isoindol-2-yl]quinoline-8-carbonitrile]	0.4 nM
C[C@@H]1CN(c2ccc(C#N)c3ncccc23)C[C@@H]2c3ccc(N4C[C@@H](N)[C@@H](F)C4)cc3CN12 [Example 47, 5-[(4R,10bS)-8-[(3R,4S)-3-amino-4-fluoro-pyrrolidin-1-yl]-4-methyl-3,4,6,10b-tetrahydro-1H-pyrazino[2,1-a]isoindol-2-yl]quinoline-8-carbonitrile]	0.6 nM
C[C@@H]1CN(c2ccc(C#N)c3ncccc23)C[C@@H]2c3ccc(N4C[C@@H](N)[C@H](F)C4)cc3CN12 [Example 48, 5-[(4R,10bS)-8-[(3R,4R)-3-amino-4-fluoro-pyrrolidin-1-yl]-4-methyl-3,4,6,10b-tetrahydro-1H-pyrazino[2,1-a]isoindol-2-yl]quinoline-8-carbonitrile]	0.7 nM
C[C@@H]1CN(c2ccc(C#N)c3ncccc23)C[C@@H]2c3ccc(N4C[C@H](N)[C@@H](F)C4)cc3CN12 [Example 49, 5-[(4R,10bS)-8-[(3S,4S)-3-amino-4-fluoro-pyrrolidin-1-yl]-4-methyl-3,4,6,10b-tetrahydro-1H-pyrazino[2,1-a]isoindol-2-yl]quinoline-8-carbonitrile]	0.6 nM
C[C@@H]1CN(c2ccc(C#N)c3ncccc23)C[C@@H]2c3ccc(N4CCC(C)(N)CC4)cc3CN12 [Example 51, 5-[(4R,10bS)-8-(4-amino-4-methyl-1-piperidyl)-4-methyl-3,4,6,10b-tetrahydro-1H-pyrazino[2,1-a]isoindol-2-yl]quinoline-8-carbonitrile]	< 0.3 nM
C[C@@H]1CN(c2ccc(C#N)c3ncccc23)C[C@@H]2c3ccc(N4CCOC5CNCC54)cc3CN12 (stereo partly drawn) [Example 52, 5-[(4R,10bS)-8-(3,4a,5,6,7,7a-hexahydro-2H-pyrrolo[3,4-b][1,4]oxazin-4-yl)-4-methyl-3,4,6,10b-tetrahydro-1H-pyrazino[2,1-a]isoindol-2-yl]quinoline-8-carbonitrile]	< 3.2 nM
C[C@@H]1CN(c2ccc(C#N)c3ncccc23)C[C@@H]2c3ccc(N4CCOCC(N)C4)cc3CN12 (stereo partly drawn) [Example 54, 5-[(4R,10bS)-8-(6-amino-1,4-oxazepan-4-yl)-4-methyl-3,4,6,10b-tetrahydro-1H-pyrazino[2,1-a]isoindol-2-yl]quinoline-8-carbonitrile]	< 3.2 nM
C[C@@H]1CN(c2ccc(C#N)c3ncccc23)C[C@@H]2c3ccc(N4CCNCC(C)(O)C4)cc3CN12 (stereo partly drawn) [Example 55, 5-[(4R,10S)-8-(6-hydroxy-6-methyl-1,4-diazepan-1-yl)-4-methyl-3,4,6,10b-tetrahydro-1H-pyrazino[2,1-a]isoindol-2-yl]quinoline-8-carbonitrile]	< 3.2 nM
C[C@@H]1CN(c2ccc(C#N)c3ncccc23)C[C@@H]2c3ccc(NC4CNCCOC4)cc3CN12 (stereo partly drawn) [Example 56, 5-[(4R,10bS)-4-methyl-8-(1,4-oxazepan-6-ylamino)-3,4,6,10b-tetrahydro-1H-pyrazino[2,1-a]isoindol-2-yl]quinoline-8-carbonitrile]	< 3.2 nM
[2H]c1ccc2c(N3C[C@@H](C)N4Cc5cc(N[C@H]6CNC[C@H]6F)ccc5[C@H]4C3)ccc(C#N)c2n1 [Example 91, 5-[(4R,10bS)-8-[[(3S,4R)-4-fluoropyrrolidin-3-yl]amino]-4-methyl-3,4,6,10b-tetrahydro-1H-pyrazino[2,1-a]isoindol-2-yl]-2-deuterio-quinoline-8-carbonitrile]	0.6 nM

Now from value to molecule:

IC50	Compound
1.5 nM	C[C@@H]1CN(c2ccc(C#N)c3ncccc23)C[C@@H]2c3ccc(N4C[C@@H](N)[C@](C)(O)C4)cc3CN12 [Example 45A, 5-[(4R,10bS)-8-[(3R,4R)-4-amino-3-hydroxy-3-methyl-pyrrolidin-1-yl]-4-methyl-3,4,6,10b-tetrahydro-1H-pyrazino[2,1-a]isoindol-2-yl]quinoline-8-carbonitrile]
1.2 nM	C[C@@H]1CN(c2ccc(C#N)c3ncccc23)C[C@@H]2c3ccc(N4C[C@H](N)[C@@](C)(O)C4)cc3CN12 [Example 45B, 5-[(4R,10bS)-8-[(3S,4S)-4-amino-3-hydroxy-3-methyl-pyrrolidin-1-yl]-4-methyl-3,4,6,10b-tetrahydro-1H-pyrazino[2,1-a]isoindol-2-yl]quinoline-8-carbonitrile]
< 3.2 nM	C[C@@H]1CN(c2ccc(C#N)c3ncccc23)C[C@@H]2c3ccc(N4CCNC[C@H](O)C4)cc3CN12 [Example 53A, 5-[(4R,10bS)-8-[(6S)-6-hydroxy-1,4-diazepan-1-yl]-4-methyl-3,4,6,10b-tetrahydro-1H-pyrazino[2,1-a]isoindol-2-yl]quinoline-8-carbonitrile]
< 3.2 nM	C[C@@H]1CN(c2ccc(C#N)c3ncccc23)C[C@@H]2c3ccc(N4CCNC[C@@H](O)C4)cc3CN12 [Example 53B, 5-[(4R,10bS)-8-[(6R)-6-hydroxy-1,4-diazepan-1-yl]-4-methyl-3,4,6,10b-tetrahydro-1H-pyrazino[2,1-a]isoindol-2-yl]quinoline-8-carbonitrile]
< 3.2 nM	C[C@@H]1CN(c2ccc(C#N)c3ncccc23)C[C@@H]2c3ccc(N4CCOC[C@H](N)C4)cc3CN12 [Example 54A, 5-[(4R,10bS)-8-[(6R)-6-amino-1,4-oxazepan-4-yl]-4-methyl-3,4,6,10b-tetrahydro-1H-pyrazino[2,1-a]isoindol-2-yl]quinoline-8-carbonitrile]
< 3.2 nM	C[C@@H]1CN(c2ccc(C#N)c3ncccc23)C[C@@H]2c3ccc(N4CCOC[C@@H](N)C4)cc3CN12 [Example 54B, 5-[(4R,10bS)-8-[(6S)-6-amino-1,4-oxazepan-4-yl]-4-methyl-3,4,6,10b-tetrahydro-1H-pyrazino[2,1-a]isoindol-2-yl]quinoline-8-carbonitrile]
< 3.2 nM	C[C@@H]1CN(c2ccc(C#N)c3ncccc23)C[C@@H]2c3ccc(N4CCNC[C@](C)(O)C4)cc3CN12 [Example 55A, 5-[(4R,10bS)-8-[(6S)-6-hydroxy-6-methyl-1,4-diazepan-1-yl]-4-methyl-3,4,6,10b-tetrahydro-1H-pyrazino[2,1-a]isoindol-2-yl]quinoline-8-carbonitrile]
< 3.2 nM	C[C@@H]1CN(c2ccc(C#N)c3ncccc23)C[C@@H]2c3ccc(N4CCNC[C@@](C)(O)C4)cc3CN12 [Example 55B, 5-[(4R,10bS)-8-[(6R)-6-hydroxy-6-methyl-1,4-diazepan-1-yl]-4-methyl-3,4,6,10b-tetrahydro-1H-pyrazino[2,1-a]isoindol-2-yl]quinoline-8-carbonitrile]

— patent US12157746B2, “Tetrahydro-1H-pyrazino[2,1-a]isoindolylquinoline compounds for the treatment of autoimmune disease” (F. HOFFMANN-LA ROCHE AG, priority 2018, dated 2024)
